Patent US20080280859A1, “GEMINI VITAMIN D3 COMPOUNDS AND METHODS OF USE THEREOF” (BioXell S.p.A., priority 2005, published 2008)
Marks after values point to notes of the source that are not given here.

Key:
[1] = test system: ILT3 expression on monocyte-derived immature dendritic cells; test: ILT3 upregulation on monocyte-derived immature dendritic cells (flow cytometry); assay type: cell-based, human; conditions: 24 hours; for upregulation of ILT3 expression: graded doses, up to 1000 nM
Protocol: Immature dendritic cells (DC) were prepared as described in Romani, N. et al., (1996) J. Immunol. Meth. 196:137). Briefly, peripheral blood mononuclear cells (PBMCs) were obtained from a buffy coat by ficoll-hypaque gradient (Pharmacia Biotec AB, Upsala, Sweden) and monocytes isolated from PBMCs by negative selected with a monocyte isolation kit (Milteny, Biotech, Bergish Gladblach, Germany). After isolation, monocytes were cultured for 6 to 7 days at a cell density of 1-2×106 in RPMI medium supplemented with 5% FetalClone I (Hyclone Laboratories, Logan, Utah) 2 mM L-glutamine, […], 1 mM sodium pyruvate and 1% nonessential amino acids, containing 800 U/ml GM-CSF (Mielogen 300, Schering-Plough) and 10 ng/ml interleukin (IL)-4 (PharMingen, San Diego, Calif.). Every other day, approximately 20% of the medium was removed and replaced by the same volume of fresh medium containing GM-CSF and IL-4.
Immunoglobulin-like transcript-3 upregulation was evaluated by flow cytometric analysis. Briefly, cells were preincubated with […] human IgG (Sigma Chemical, St. Louis, Mo.) and subsequently stained with anti-human ILT3 antibody (see, e.g., Cella, M. et al. (1997) J. Exp. Med. 185:1743) followed by anti-mouse IgG-phycoerithryn (Jackson). Cells were then analyzed with a FACScanR flow cytometer using a Cell QuestR software program (both from Beckton Dickinson, Mountain View, Calif.).

RT4 = test: Proliferation assay, bladder cancer cell line RT4; assay type: cell-based; conditions: Homo sapiens, RT-4; 72 h culture, CyQuant proliferation assay
Protocol: (§1) Bladder cancer cell lines (T24, RT112, HT1376 and RT4 are human bladder cancer cell lines; NHEK are normal human keratinocytes) were obtained from the European Collection of Cell Cultures (Salisbury, UK). […] After a further 72 h of culture, cell proliferation was measured using a fluorescence-based proliferation assay kit. (CyQuant Cell Proliferation Assay Kit, Molecular Probes, Eugene, Oreg., USA). The IC50 was calculated from the regression curve of the titration data.

IFN-γ production = IFN-γ production in the mixed leukocyte response (MLR); assay type: cell-based; conditions: MLR of allogeneic PBMC, 5 days, ELISA; for IC50: 120 h, read-out: INF-γ IC50
Protocol: Immature dendritic cells (DC) were prepared as described in Romani, N. et al., J. Immunol. Meth.

NHEK = test: Proliferation assay, normal human keratinocytes NHEK; assay type: cell-based; conditions: 72 h culture, CyQuant proliferation assay
Protocol: as §1

HL-60 cells = test: HL-60 (CD14) cell differentiation; assay type: cell-based; conditions: Homo sapiens, HL-60 cell differentiation, read-out: HL-60(CD14) ED50
HT 1376 = test: Proliferation assay, bladder cancer cell line HT 1376; assay type: cell-based; conditions: Homo sapiens, 72 h culture, CyQuant proliferation assay
Protocol: as §1

RT112 = test: Proliferation assay, bladder cancer cell line RT112; assay type: cell-based; conditions: Homo sapiens, RT-112; 72 h culture, CyQuant proliferation assay
Protocol: as §1

in vivo = conditions: female, C57BL/6, mouse, po
VDR = target: T1, VDR (Homo sapiens, UniProt P11473); test: VDR binding; conditions: 1,25(OH)2D3 100.0
T1 sequence (P11473 1-427): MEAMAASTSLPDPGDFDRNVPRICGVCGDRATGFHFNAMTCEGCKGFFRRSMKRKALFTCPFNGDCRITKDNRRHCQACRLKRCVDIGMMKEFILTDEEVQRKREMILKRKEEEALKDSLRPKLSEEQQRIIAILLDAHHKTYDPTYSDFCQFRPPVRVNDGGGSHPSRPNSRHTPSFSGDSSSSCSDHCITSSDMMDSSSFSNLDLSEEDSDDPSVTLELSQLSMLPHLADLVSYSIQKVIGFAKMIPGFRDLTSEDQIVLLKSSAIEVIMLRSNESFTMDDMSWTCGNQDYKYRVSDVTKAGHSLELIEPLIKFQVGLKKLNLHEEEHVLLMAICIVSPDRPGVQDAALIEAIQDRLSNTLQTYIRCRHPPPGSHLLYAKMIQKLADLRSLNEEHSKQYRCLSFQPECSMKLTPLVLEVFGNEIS

[2] = test system: renin mRNA in As4.1hVDR cells; test: Renin suppression assay (renin mRNA, Northern blot); conditions: 10^−10, 10^−9 and 10^−8 M, 24 hours
ECV = test: Proliferation assay, bladder cancer cell line ECV; assay type: cell-based; conditions: Homo sapiens; 72 h culture, CyQuant proliferation assay

| Structure (SMILES) | IC50 (RT4) [µM] | IC50 (IFN-γ production) [nM] | IC50 (RT112) [µM] | MTD (in vivo) [mg/kg] | renin suppression activity compared with 1,25(OH)2D3 [2] | further results |
| --- | --- | --- | --- | --- | --- | --- |
| C=C1/C(=C\C=C2/CCC[C@]3(C)[C@@H]([C@@H](CCCC(C)(C)O)CC[C@@H](O)C(C)(C)O)CC[C@@H]23)C[C@@H](O)C[C@@H]1O (stereo in doubt) [Compound 2, 1,25-Dihydroxy-21-(2R,3-dihydroxy-3-methyl-butyl)-20S-cholecalciferol] |  |  |  |  |  | ILT3 mean fluorescence intensity ([1]; 1 nM of compound): 260; upregulation of ILT3 expression ([1]; listed as 1,24R,25-trihydroxy-20R-21-(3-hydroxy-3-methylbutyl)): very favourable upregulation; upregulation of ILT3 expression ([1]; listed as ix): greatest upregulation of ILT3 |
| C=C1/C(=C\C=C2/CCC[C@]3(C)[C@@H]([C@H](C)CCCC(C)(C)O)CC[C@@H]23)C[C@@H](O)C[C@@H]1O [1,25(OH)2D3, reference compound] | 45 | 0.029 | 19 |  |  | down regulation of INF-γ (class symbol) (IFN-γ production): * (good down regulation of INF-γ (e.g., less than 100 IC50 pM)); IC50 (NHEK): 4.9 µM; EC50 (HL-60 cells): 0.00137 µM; IC50 (HT 1376): 50 µM |
| C=C1/C(=C\C=C2/CCC[C@@]3(C)C2CC[C@@H]3C(CCCC(C)(C)O)CCCC(C)(C)O)CC(O)C[C@@H]1O (stereo partly shown) [Compound 1, 1,25-Dihydroxy-21-(3-hydroxy-3-methyl-butyl)-cholecalciferol, reference compound] |  | 0.022 |  | 0.003 | comparable to that of 1,25(OH)2D3 | down regulation of INF-γ (class symbol) (IFN-γ production): * (good down regulation of INF-γ (e.g., less than 100 IC50 pM)); VDR Binding (VDR): 38.0**; EC50 (HL-60 cells): 0.00034 µM |
| C=C1/C(=C\C=C2/CCC[C@]3(C)[C@@H]([C@@H](CCCC(C)(C)O)CC[C@@H](O)C(C)(C)O)CC[C@@H]23)C[C@@H](O)C[C@@H]1O [Compound 2, 1,25-Dihydroxy-21-(2R,3-dihydroxy-3-methyl-butyl)-20S-cholecalciferol] | 62 | 0.549 | 1 | 0.03 | more potent in suppressing renin expression than 1,25(OH)2D3 | IC50 (NHEK): 37.2 µM; VDR Binding (VDR): 0.95**; IC50 (ECV): 69.4 µM; EC50 (HL-60 cells): 0.0093 µM |
| C=C1/C(=C\C=C2/CCC[C@]3(C)[C@@H]([C@H](CCCC(C)(C)O)CC[C@@H](O)C(C)(C)O)CC[C@@H]23)C[C@@H](O)C[C@@H]1O [Compound 3, 1,25-Dihydroxy-21-(2R,3-dihydroxy-3-methyl-butyl)-20R-cholecalciferol] | 71 | 0.066 | 25 | 0.03 | comparable to that of 1,25(OH)2D3 | down regulation of INF-γ (class symbol) (IFN-γ production): * (good down regulation of INF-γ (e.g., less than 100 IC50 pM)); IC50 (NHEK): 46.5 µM; VDR Binding (VDR): 42.10*; IC50 (ECV): 57.9 µM; EC50 (HL-60 cells): 0.00217 µM; IC50 (HT 1376): 98 µM |
| C=C1/C(=C\C=C2/CCC[C@@]3(C)C2CC[C@@H]3[C@H](CC#CC(O)(C(F)(F)F)C(F)(F)F)CCCC(C)(C)O)CC(O)C[C@@H]1O (stereo partly drawn) [Compound 4, 1,25-Dihydroxy-21-(3-hydroxy-3-trifluoromethyl-4-trifluoro-butynyl)-20S-cholecalciferol] |  |  |  |  | more potent in suppressing renin expression than 1,25(OH)2D3 |  |
| CC(C)(O)CCCC(CC#CC(O)(C(F)(F)F)C(F)(F)F)[C@H]1CCC2/C(=C/C=C3/CC(O)C[C@H](O)C3)CCC[C@@]21C (stereo partly drawn) [Compound 5, 1,25-Dihydroxy-21-(3-hydroxy-3-trifluoromethyl-4-trifluoro-butynyl)-20R-19-nor-cholecalciferol] |  |  |  |  | comparable to that of 1,25(OH)2D3 |  |
| CC(C)(O)CCC[C@@H](CC#CC(O)(C(F)(F)F)C(F)(F)F)[C@H]1CCC2/C(=C/C=C3/CC(O)C[C@H](O)C3)CCC[C@@]21C (stereo partly drawn) [Compound 6, 1,25-Dihydroxy-21-(3-hydroxy-3-trifluoromethyl-4-trifluoro-butynyl)-20S-19-nor-cholecalciferol] |  |  |  |  | more potent in suppressing renin expression than 1,25(OH)2D3 |  |
| C=C1/C(=C\C=C2/CCC[C@@]3(C)C2CC[C@@H]3C(CC#CC(O)(C(F)(F)F)C(F)(F)F)CCCC(C)(C)O)CC(O)C[C@@H]1O (stereo partly drawn) [Compound 11, 1,25-Dihydroxy-21-(3-hydroxy-3-trifluoromethyl-4-trifluorobutynyl)-20R-cholecalciferol] |  |  |  |  | comparable to that of 1,25(OH)2D3 |  |
| CC(C)(O)CCC[C@@H](CCC(=O)C(C)(C)O)[C@H]1CC[C@H]2/C(=C/C=C3C[C@@H](O)C[C@H](O)C3)CCC[C@]12C [Compound 12, 1,25-Dihydroxy-20S-21-(3-hydroxy-3-methyl-butyl)-24-keto-19-nor-cholecalciferol] | 2.6 | 2.97 | > 30 | 0.03 |  |  |
| C=C1/C(=C\C=C2/CCC[C@]3(C)[C@@H]([C@@H](CCCC(C)(C)O)CCC(=O)C(C)(C)O)CC[C@@H]23)C[C@@H](O)C[C@@H]1O [Compound 14, 1,25-Dihydroxy-20S-21-(3-hydroxy-3-methyl-butyl)-24-keto-cholecalciferol] | 8.3 | 0.35 | 25.5 | 0.03 |  |  |
| CC(C)(O)CCC[C@@H](CC[C@@H](O)C(C)(C)O)[C@H]1CC[C@H]2/C(=C/C=C3C[C@@H](O)C[C@H](O)C3)CCC[C@]12C [Compound 38, 1,25-Dihydroxy-21-(2R,3-dihydroxy-3-methyl-butyl)-20S-19-nor-cholecalciferol] | 72 | 3.86 | 44 | > 0.3 |  | IC50 (NHEK): 57 µM; IC50 (ECV): 99.2 µM; IC50 (HT 1376): > 100 µM |
| [2H]C([2H])([2H])C(O)(CCC[C@@H](CC#CC(O)(C(F)(F)F)C(F)(F)F)C1CCC2/C(=C/C=C3C[C@@H](O)C[C@H](O)C3)CCC[C@@]21C)C([2H])([2H])[2H] (stereo partly drawn) [Compound 39, 1,25-Dihydroxy-21(3-hydroxy-3-trifluoromethyl-4-trifluoro-butynyl)-26,27-hexadeutero-19-nor-20S-cholecalciferol] | 2.2 | 0.062 | 7 | 0.0003 |  |  |
| [2H]C([2H])([2H])C(O)(CCC[C@@H](CC#CC(O)(C(F)(F)F)C(F)(F)F)C1CCC2/C(=C/C=C3/C[C@@H](O)C[C@H](O)C3=C)CCC[C@@]21C)C([2H])([2H])[2H] (stereo partly drawn) [Compound 40, 1,25-Dihydroxy-21-(3-hydroxy-3-trifluoromethyl-4-trifluoro-butynyl)-26,27-hexadeutero-20S-cholecalciferol] | 2.2 | 0.062 | 6.4 | 0.0001 |  |  |
| COc1c(C)c2c(c(O)c1C/C=C(\C)CCC(=O)OCCN1CCOCC1)C(=O)OC2 [Mycophenolate Mofetil, reference compound] |  |  |  |  |  | upregulation of ILT3 expression [1]: fail to upregulate ILT3 expression at any concentration tested |
